What was measured:
Paraphyton cookei = experiment: checkerboard drug interaction (FICI, MICc);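 note: simplified diagonal checkerboard screen pairing an antifungal with an FPPS inhibitor, FICI computed under the Loewe additivity model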
Description: (§1) Drug interactions between antifungals and FPPS inhibitors were investigated using a simplified checkerboard diagonal screening method ([45]). […] FICIs were determined according to the Loewe additivity model ([17]).

Cryptococcus tetragattii [1] = experiment: checkerboard drug interaction (FICI, MICc); type: cell-based;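 note: simplified diagonal checkerboard screen pairing antifungals with FPPS inhibitors, with FICI calculated under the Loewe additivity model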
Description: as §1

Nannizzia nana [2] = experiment: MIC broth microdilution (CLSI); type: cell-based; conditions: Nannizzia nana R-133
Description: (§2) Antifungal susceptibility was determined by broth microdilution according to the CLSI guidelines described in M27-Ed4 ([16]).

Lomentospora prolificans [3] = experiment: MIC broth microdilution (CLSI); type: cell-based; conditions: Lomentospora prolificans 80-16-101-2445
Description: as §2

Cryptococcus tetragattii [4] = experiment: MIC broth microdilution (CLSI); type: cell-based; conditions: Cryptococcus tetragattii WM779
Description: as §2

Lomentospora prolificans [5] = experiment: checkerboard drug interaction (FICI, MICc);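 note: simplified diagonal checkerboard screen pairing antifungals with FPPS inhibitors, FICI calculated under the Loewe additivity model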
Description: as §1

Nannizzia nana [6] = experiment: checkerboard drug interaction (FICI, MICc); type: cell-based;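 note: simplified diagonal checkerboard screen pairing antifungals with FPPS inhibitors, FICI calculated under the Loewe additivity model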
Description: as §1

Microsporum canis = experiment: checkerboard drug interaction (FICI, MICc); type: cell-based;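 note: simplified diagonal checkerboard screen pairing antifungals with FPPS inhibitors, FICI calculated under the Loewe additivity model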
Description: as §1

Aspergillus felis [7] = experiment: MIC broth microdilution (CLSI); type: cell-based; conditions: Aspergillus felis IHE87256683D6
Description: as §2

Candida dubliniensis = experiment: checkerboard drug interaction (FICI, MICc); type: cell-based;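 note: simplified diagonal checkerboard screen pairing antifungals with FPPS inhibitors, FICI calculated under the Loewe additivity model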
Description: as §1

Aspergillus terreus = experiment: checkerboard drug interaction (FICI, MICc); type: cell-based;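 note: simplified diagonal checkerboard screen pairing antifungals with FPPS inhibitors, FICI derived by the Loewe additivity model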
Description: as §1

Fusarium oxysporum = experiment: MIC broth microdilution (CLSI); type: cell-based; conditions: Fusarium oxysporum 07-200-3012
Description: as §2

Candida tropicalis = experiment: checkerboard drug interaction (FICI, MICc); type: cell-based;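 note: simplified diagonal checkerboard screen of antifungal plus FPPS inhibitor combinations, with FICI computed by the Loewe additivity model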
Description: as §1

Epidermophyton floccosum = experiment: MIC broth microdilution (CLSI); type: cell-based; conditions: Epidermophyon floccosum R-113
Description: as §2

[8] = tested on: Cryptococcus bacillisporus; experiment: checkerboard drug interaction (FICI, MICc); type: cell-based;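 note: interaction of antifungals with FPPS inhibitors assessed by a simplified diagonal checkerboard screen, with FICI computed under the Loewe additivity model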
Description: as §1

Aspergillus felis [9] = experiment: checkerboard drug interaction (FICI, MICc); type: cell-based
Description: as §1

Trichophyton tonsurans = experiment: MIC broth microdilution (CLSI); conditions: Trichophyton tonsurans R-168
Description: as §2

`CCCCCCCCCCn1cc[n+](CC(O)(P(=O)(O)O)P(=O)(O)O)c1` [10-ZOL, Decyl-zoledronate] was tested, and the FICI (Paraphyton cookei; VOR:10-ZOL) was 0.9, the “bisphosphonate MICc” value (Paraphyton cookei; with 5FC) was 0.25 and the “bisphosphonate MICc” value (Paraphyton cookei; with AMB) was 0.25. For the same molecule, the “bisphosphonate MICc” value (Paraphyton cookei; with CAS) was 0.25, the “bisphosphonate MICc” value (Paraphyton cookei; with FLC) was 0.25 and the “bisphosphonate MICc” value (Paraphyton cookei; with ITR) was 0.25. The “bisphosphonate MICc” value (Paraphyton cookei; with KET) was 0.25, the “bisphosphonate MICc” value (Paraphyton cookei; with VOR) was 0.125 and the FICI (Cryptococcus tetragattii [1]; CAS:10-ZOL) was 2.13. For the same molecule, the FICI (Cryptococcus tetragattii [1]; KET:10-ZOL) was 0.5, the FICI (Cryptococcus tetragattii [1]; VOR:10-ZOL) was 1.48 and the “bisphosphonate MICc” value (Cryptococcus tetragattii [1]; with 5FC) was 0.5. The “bisphosphonate MICc” value (Cryptococcus tetragattii [1]; with AMB) was 0.063, the “bisphosphonate MICc” value (Cryptococcus tetragattii [1]; with CAS) was 1 and the “bisphosphonate MICc” value (Cryptococcus tetragattii [1]; with FLC) was 0.125. The “bisphosphonate MICc” value (Cryptococcus tetragattii [1]; with ITR) was 0.125, the “bisphosphonate MICc” value (Cryptococcus tetragattii [1]; with KET) was 0.125 and the “bisphosphonate MICc” value (Cryptococcus tetragattii [1]; with VOR) was 0.5. For the same molecule, the “MIC / MEC” value (Nannizzia nana [2]) was 1 µg/mL, the “MIC / MEC” value (Lomentospora prolificans [3]) was 2 µg/mL and the “MIC / MEC” value (Cryptococcus tetragattii [4]) was 0.5 µg/mL. The FICI (Lomentospora prolificans [5]; CAS:10-ZOL) was ≥4, the FICI (Lomentospora prolificans [5]; ITR:10-ZOL) was 0.5 and the “bisphosphonate MICc” value (Lomentospora prolificans [5]; with 5FC) was 1. For the same molecule, the “bisphosphonate MICc” value (Lomentospora prolificans [5]; with AMB) was 2, the “bisphosphonate MICc” value (Lomentospora prolificans [5]; with CAS) was 0.5 and the “bisphosphonate MICc” value (Lomentospora prolificans [5]; with FLC) was 1. The “bisphosphonate MICc” value (Lomentospora prolificans [5]; with ITR) was 0.5, the “bisphosphonate MICc” value (Lomentospora prolificans [5]; with KET) was 1 and the “bisphosphonate MICc” value (Lomentospora prolificans [5]; with VOR) was 1. It also gave an FICI (Nannizzia nana [6]; 5FC:10-ZOL) of 2, an FICI (Nannizzia nana [6]; AMB:10-ZOL) of 2.25 and an FICI (Nannizzia nana [6]; CAS:10-ZOL) of 2.17. It also gave an FICI (Nannizzia nana [6]; FLC:10-ZOL) of 1.5, an FICI (Nannizzia nana [6]; ITR:10-ZOL) of 2 and an FICI (Nannizzia nana [6]; VOR:10-ZOL) of 1.17. For the same molecule, the “bisphosphonate MICc” value (Nannizzia nana [6]; with 5FC) was 1, the “bisphosphonate MICc” value (Nannizzia nana [6]; with AMB) was 0.25 and the “bisphosphonate MICc” value (Nannizzia nana [6]; with CAS) was 0.25. For the same molecule, the “bisphosphonate MICc” value (Nannizzia nana [6]; with FLC) was 0.5, the “bisphosphonate MICc” value (Nannizzia nana [6]; with ITR) was 1 and the “bisphosphonate MICc” value (Nannizzia nana [6]; with KET) was 0.25. For the same molecule, the “bisphosphonate MICc” value (Nannizzia nana [6]; with VOR) was 0.125, the FICI (Microsporum canis; 5FC:10-ZOL) was 3 and the FICI (Microsporum canis; CAS:10-ZOL) was 2. The FICI (Microsporum canis; VOR:10-ZOL) was 1.16, the “bisphosphonate MICc” value (Microsporum canis; with 5FC) was 1 and the “bisphosphonate MICc” value (Microsporum canis; with AMB) was 0.25. The “bisphosphonate MICc” value (Microsporum canis; with CAS) was 1, the “bisphosphonate MICc” value (Microsporum canis; with FLC) was 0.25 and the “bisphosphonate MICc” value (Microsporum canis; with ITR) was 0.5. The “bisphosphonate MICc” value (Microsporum canis; with KET) was 1, the “bisphosphonate MICc” value (Microsporum canis; with VOR) was 0.125 and the “MIC / MEC” value (Aspergillus felis [7]) was 2 µg/mL. For the same molecule, the FICI (Candida dubliniensis; CAS:10-ZOL) was 1.18, the FICI (Candida dubliniensis; KET:10-ZOL) was 0.43 and the FICI (Candida dubliniensis; VOR:10-ZOL) was 1.55. The “bisphosphonate MICc” value (Candida dubliniensis; with 5FC) was 0.25, the “bisphosphonate MICc” value (Candida dubliniensis; with AMB) was 0.125 and the “bisphosphonate MICc” value (Candida dubliniensis; with CAS) was 0.125. For the same molecule, the “bisphosphonate MICc” value (Candida dubliniensis; with FLC) was 0.25, the “bisphosphonate MICc” value (Candida dubliniensis; with ITR) was 0.125 and the “bisphosphonate MICc” value (Candida dubliniensis; with KET) was 0.125. The “bisphosphonate MICc” value (Candida dubliniensis; with VOR) was 1, the FICI (Aspergillus terreus; 5FC:10-ZOL) was 1.5 and the FICI (Aspergillus terreus; CAS:10-ZOL) was 3. For the same molecule, the FICI (Aspergillus terreus; FLC:10-ZOL) was 0.53, the FICI (Aspergillus terreus; ITR:10-ZOL) was 1 and the FICI (Aspergillus terreus; KET:10-ZOL) was 1.5. For the same molecule, the FICI (Aspergillus terreus; VOR:10-ZOL) was 1.5, the “bisphosphonate MICc” value (Aspergillus terreus; with 5FC) was 0.25 and the “bisphosphonate MICc” value (Aspergillus terreus; with AMB) was 0.5. The “bisphosphonate MICc” value (Aspergillus terreus; with CAS) was 1, the “bisphosphonate MICc” value (Aspergillus terreus; with FLC) was 0.25 and the “bisphosphonate MICc” value (Aspergillus terreus; with ITR) was 0.25. For the same molecule, the “bisphosphonate MICc” value (Aspergillus terreus; with KET) was 0.25, the “bisphosphonate MICc” value (Aspergillus terreus; with VOR) was 0.25 and the “MIC / MEC” value (Fusarium oxysporum) was 8 µg/mL. For the same molecule, the FICI (Candida tropicalis; 5FC:10-ZOL) was 1.5, the FICI (Candida tropicalis; CAS:10-ZOL) was ≥4 and the FICI (Candida tropicalis; VOR:10-ZOL) was 0.5. For the same molecule, the “bisphosphonate MICc” value (Candida tropicalis; with 5FC) was 1, the “bisphosphonate MICc” value (Candida tropicalis; with AMB) was 0.125 and the “bisphosphonate MICc” value (Candida tropicalis; with CAS) was 1. The “bisphosphonate MICc” value (Candida tropicalis; with FLC) was 1, the “bisphosphonate MICc” value (Candida tropicalis; with ITR) was 0.125 and the “bisphosphonate MICc” value (Candida tropicalis; with KET) was 0.25. For the same molecule, the “bisphosphonate MICc” value (Candida tropicalis; with VOR) was 0.5, the “MIC / MEC” value (Epidermophyton floccosum) was 0.5 µg/mL and the FICI ([8]; ITR:10-ZOL) was 0.61. For the same molecule, the “bisphosphonate MICc” value ([8]; with 5FC) was 1, the “bisphosphonate MICc” value ([8]; with AMB) was 0.125 and the “bisphosphonate MICc” value ([8]; with CAS) was 1. For the same molecule, the “bisphosphonate MICc” value ([8]; with FLC) was 0.125, the “bisphosphonate MICc” value ([8]; with ITR) was 0.125 and the “bisphosphonate MICc” value ([8]; with KET) was 0.125. The “bisphosphonate MICc” value ([8]; with VOR) was 0.125, the FICI (Aspergillus felis [9]; AMB:10-ZOL) was 1 and the FICI (Aspergillus felis [9]; CAS:10-ZOL) was ≥4. For the same molecule, the FICI (Aspergillus felis [9]; FLC:10-ZOL) was 0.52, the “bisphosphonate MICc” value (Aspergillus felis [9]; with 5FC) was 1 and the “bisphosphonate MICc” value (Aspergillus felis [9]; with AMB) was 1. The “bisphosphonate MICc” value (Aspergillus felis [9]; with CAS) was 4, the “bisphosphonate MICc” value (Aspergillus felis [9]; with FLC) was 1 and the “bisphosphonate MICc” value (Aspergillus felis [9]; with ITR) was 1. For the same molecule, the “bisphosphonate MICc” value (Aspergillus felis [9]; with KET) was 0.25, the “bisphosphonate MICc” value (Aspergillus felis [9]; with VOR) was 1 and the “MIC / MEC” value (Trichophyton tonsurans) was 1 µg/mL.

— PMC12892976, “Alkylation-based optimization of antifungal FPPS inhibitors yields a potent, broad-spectrum lipophilic zoledronate derivative” (mBio, 2025)
